Values after ≈ are worked out from the molar mass of the structure shown.
Tests used:
NCI-H460 [1] = experiment: Cytotoxicity against human NCI-H460 cells assessed as reduction in cell viability after 2 hrs under hypoxic conditions by Alamar blue assay; format: functional, cell-based; conditions: NCI-H460, 2 h
NCI-H460 [2] = experiment: Cytotoxicity against human NCI-H460 cells assessed as reduction in cell viability after 2 hrs under normoxic conditions by Alamar blue assay; format: functional, cell-based; conditions: NCI-H460, 2 h
Hep 3B2 [3] = experiment: Cytotoxicity against human Hep3B cells after 24 hrs by MTS assay; format: functional, cell-based
Hep 3B2 [4] = experiment: Cytotoxicity against human Hep3B cells after 24 hrs under hypoxic condition by MTS assay; format: functional, cell-based
[5] = biological target: Epidermal growth factor receptor (Homo sapiens, UniProt P00533); experiment: Inhibition of erbB1 (unknown origin) using FRET-capable peptide substrate by FRET assay
NCI-H460 [6] = experiment: Antiproliferative activity against human NCI-H460 cells; format: functional, cell-based
NCI-H460 [7] = experiment: Antiproliferative activity against human NCI-H460 cells in presence of O2; format: functional, cell-based
NCI-H460 [8] = experiment: Antiproliferative activity against human NCI-H460 cells in presence of N2; format: functional, cell-based
NCI-H460 [9] = experiment: Ratio of IC50 for antiproliferative activity against human NCI-H460 cells in presence of O2 to antiproliferative activity against human NCI-H460 cells in presence of N2; format: functional
NCI-H460 [10] = experiment: Cytotoxicity against human NCI-H460 cells assessed as reduction in cell viability after 2 hrs by Alamar blue assay; format: functional, cell-based; conditions: NCI-H460, 2 h
HT-29 [11] = experiment: Cytotoxicity against human HT-29 cells assessed as reduction in cell viability after 2 hrs by Alamar blue assay; format: functional, cell-based; conditions: HT-29, 2 h
[12] = Cytotoxicity against human MiaPaCa cells assessed as reduction in cell viability after 2 hrs by Alamar blue assay; format: functional, cell-based; conditions: MIA PaCa-2, 2 h
[13] = tested on: Mycobacterium tuberculosis; experiment: Antitubercular activity against Mycobacterium tuberculosis; format: functional
[14] = tested on: Mycobacterium tuberculosis; experiment: Antitubercular activity against drug-sensitive Mycobacterium tuberculosis; format: functional
SK-OV-3 = experiment: Cytotoxicity against human SKOV3 cells; format: functional, cell-based
HT-29 [15] = experiment: Cytotoxicity against human HT-29 cells; format: functional, cell-based

Sequence of Epidermal growth factor receptor (P00533 whole entry): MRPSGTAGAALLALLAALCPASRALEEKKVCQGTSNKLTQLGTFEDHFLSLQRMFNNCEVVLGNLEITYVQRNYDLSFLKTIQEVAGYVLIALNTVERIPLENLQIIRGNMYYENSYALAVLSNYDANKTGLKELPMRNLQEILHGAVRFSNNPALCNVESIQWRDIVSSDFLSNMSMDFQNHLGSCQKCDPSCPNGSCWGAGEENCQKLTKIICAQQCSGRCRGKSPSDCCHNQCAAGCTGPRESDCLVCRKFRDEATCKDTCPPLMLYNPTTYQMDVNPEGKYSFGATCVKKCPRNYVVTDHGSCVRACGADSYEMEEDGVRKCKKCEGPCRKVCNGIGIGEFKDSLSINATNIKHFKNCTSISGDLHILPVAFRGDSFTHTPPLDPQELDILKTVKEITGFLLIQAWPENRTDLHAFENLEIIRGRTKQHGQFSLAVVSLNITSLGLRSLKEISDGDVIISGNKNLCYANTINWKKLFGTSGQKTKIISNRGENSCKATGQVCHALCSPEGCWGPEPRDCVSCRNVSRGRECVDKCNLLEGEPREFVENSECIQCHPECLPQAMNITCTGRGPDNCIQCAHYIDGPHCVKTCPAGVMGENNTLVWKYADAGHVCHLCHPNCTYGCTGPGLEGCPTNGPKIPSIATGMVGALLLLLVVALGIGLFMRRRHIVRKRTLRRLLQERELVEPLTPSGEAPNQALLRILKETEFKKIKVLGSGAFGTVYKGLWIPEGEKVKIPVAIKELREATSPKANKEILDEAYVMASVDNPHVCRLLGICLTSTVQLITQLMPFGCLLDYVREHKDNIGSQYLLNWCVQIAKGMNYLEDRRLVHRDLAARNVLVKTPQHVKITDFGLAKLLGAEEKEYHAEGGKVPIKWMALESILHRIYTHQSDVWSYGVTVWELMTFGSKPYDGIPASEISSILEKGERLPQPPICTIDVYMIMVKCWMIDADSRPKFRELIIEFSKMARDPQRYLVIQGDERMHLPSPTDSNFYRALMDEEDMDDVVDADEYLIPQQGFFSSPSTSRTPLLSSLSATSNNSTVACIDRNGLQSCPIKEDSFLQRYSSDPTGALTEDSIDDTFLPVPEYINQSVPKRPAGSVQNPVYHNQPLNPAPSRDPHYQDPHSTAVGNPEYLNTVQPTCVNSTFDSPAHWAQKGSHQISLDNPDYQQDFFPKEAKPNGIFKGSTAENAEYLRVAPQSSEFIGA

## COc1cccc2c1C(=O)c1c(O)c3c(c(O)c1C2=O)C[C@@](O)(C(C)=O)C[C@@H]3O[C@H]1C[C@H](n2ccnc2[N+](=O)[O-])[C@H](O)[C@H](C)O1
NCI-H460 [1]
  IC50: 12 nM
NCI-H460 [2]
  IC50: 2300 nM

## COc1ccc(C[C@@H](C)[C@@H](C)Cc2ccc(OCCOCCOCCOCCn3ccnc3[N+](=O)[O-])c(OC)c2)cc1OC
Hep 3B2 [3]
  IC50: 13.4 µM
Hep 3B2 [4]
  IC50: 13.4 µM

## C[N+](C)(C/C=C/C(=O)Nc1ccc2ncnc(Nc3cccc(Br)c3)c2c1)Cc1ccccc1[N+](=O)[O-]
[5]
  IC50: 0.22 to 0.56 nM

## N#Cc1cc(COP(=O)(NCCBr)NCCBr)sc1[N+](=O)[O-]
NCI-H460 [6]
  IC50: 20 nM
NCI-H460 [7]
  IC50: 0.01 µM
NCI-H460 [8]
  IC50: 6 nM

## NC(=O)c1cnc(N2CC2)c([N+](=O)[O-])c1
NCI-H460 [9]
  Ratio IC50: 62
NCI-H460 [7]
  IC50: 143 µM
NCI-H460 [8]
  IC50: 2300 nM

## CC#Cc1c(OC)ccc2c(C(=O)c3cc(OC)c(OC)c(OC)c3)nn(Cn3cc[n+](Cc4ccc([N+](=O)[O-])o4)c3)c12
NCI-H460 [10]
  IC50: 14 nM
HT-29 [11]
  IC50: 1 nM

## CC#Cc1c(OC)ccc2c(C(=O)c3cc(OC)c(OC)c(OC)c3)nn(C[N+](C)(C)Cc3c(-c4ccc(Br)o4)nc([N+](=O)[O-])n3C)c12
NCI-H460 [10]
  IC50: 18 nM
HT-29 [11]
  IC50: 17 nM

## CC(=O)O[C@H]1C(=O)[C@@]2(C)[C@H]([C@H](OC(=O)c3ccccc3)[C@]3(O)C[C@H](OC(=O)[C@H](OC(=O)N(C)CCN(C)C(=O)OC(C)c4ccc([N+](=O)[O-])c(Oc5ccc6ncccc6c5)c4)[C@@H](NC(=O)c4ccccc4)c4ccccc4)C(C)=C1C3(C)C)[C@]1(OC(C)=O)CO[C@@H]1C[C@@H]2O (stereo partly specified)
NCI-H460 [6]
  IC50: 30 nM

## Cn1c(C[N+](C)(C)C/C=C/C(=O)Nc2ccc3ncnc(Nc4cccc(Br)c4)c3c2)ccc1[N+](=O)[O-]
[5]
  IC50: 0.22 to 0.56 nM

## CC#Cc1c(OC)ccc2c(C(=O)c3cc(OC)c(OC)c(OC)c3)nn(C[N+](C)(C)Cc3ccc([N+](=O)[O-])o3)c12
NCI-H460 [10]
  IC50: 45 nM
HT-29 [11]
  IC50: 12 nM

## NC(=O)c1cc(N2CC2)ncc1[N+](=O)[O-]
NCI-H460 [7]
  IC50: 19.6 µM
NCI-H460 [8]
  IC50: 1100 nM

## COc1ccc(C[C@@H](C)[C@@H](C)Cc2ccc(OC)c(OCCOCCOCCOCCn3cnc([N+](=O)[O-])c3)c2)cc1OC
Hep 3B2 [3]
  IC50: 13 µM
Hep 3B2 [4]
  IC50: 64.3 µM

## Cn1cnc([N+](=O)[O-])c1C[N+](C)(C)C/C=C/C(=O)Nc1ccc2ncnc(Nc3cccc(Br)c3)c2c1
[5]
  IC50: 0.22 to 0.56 nM

## COc1ccc(C[C@@H](C)[C@@H](C)Cc2ccc(OCCOCCOCCOCCn3cnc([N+](=O)[O-])c3)c(OC)c2)cc1OC
Hep 3B2 [3]
  IC50: 12.5 µM
Hep 3B2 [4]
  IC50: 52.1 µM

## C=Cc1nc([N+](=O)[O-])n(C)c1C[N+](C)(C)Cn1nc(C(=O)c2cc(OC)c(OC)c(OC)c2)c2ccc(OC)c(C#CC)c21
NCI-H460 [10]
  IC50: 48 nM
HT-29 [11]
  IC50: 7 nM
[12]
  IC50: 20 nM

## CC(=O)O[C@H]1C(=O)[C@@]2(C)[C@H]([C@H](OC(=O)c3ccccc3)[C@]3(O)C[C@H](OC(=O)[C@H](OC(=O)N(C)CCN(C)C(=O)OCc4ccc([N+](=O)[O-])c(Oc5ccc6ncccc6c5)c4)[C@@H](NC(=O)c4ccccc4)c4ccccc4)C(C)=C1C3(C)C)[C@]1(OC(C)=O)CO[C@@H]1C[C@@H]2O
NCI-H460 [6]
  IC50: 30 nM

## CC(OP(=O)(NCCBr)NCCBr)c1ccc([N+](=O)[O-])s1 (stereo unspecified)
NCI-H460 [6]
  IC50: 500 nM
NCI-H460 [7]
  IC50: 0.2 µM
NCI-H460 [8]
  IC50: 30 nM

## NC(=O)c1ccc([N+](=O)[O-])c(N2CC2)n1
NCI-H460 [9]
  Ratio IC50: 35.9
NCI-H460 [7]
  IC50: 61 µM
NCI-H460 [8]
  IC50: 1700 nM

## CC#Cc1c(OC)ccc2c(C(=O)c3cc(OC)c(OC)c(OC)c3)nn(C[N+](C)(C)Cc3c(CCC)nc([N+](=O)[O-])n3C)c12
NCI-H460 [10]
  IC50: 40 nM
HT-29 [11]
  IC50: 18 nM

## FC(F)(F)Oc1ccc(CO[C@@H]2COc3nccn3C2)cc1
[13]
  MIC: < 2.8 µM
[14]
  MIC: 0.039 to 0.531 µg/mL (≈ 0.124 to 1.69 µM)

## COc1cc2cc(C(=O)N3CC(CCl)c4c3cc([N+](=O)[O-])c3c(C(C)=O)cccc43)[nH]c2c(OC)c1OC (stereo unspecified)
SK-OV-3
  IC50: 500 nM
HT-29 [15]
  IC50: 680 nM

## CN(C)CCOc1ccc2[nH]c(C(=O)N3CC(CCl)c4c3cc([N+](=O)[O-])c3c(C#N)cccc43)cc2c1 (stereo unspecified)
SK-OV-3
  IC50: 170 nM
HT-29 [15]
  IC50: 120 nM

## COC(=O)c1ccc2c3c(cc([N+](=O)[O-])c2c1)N(C(=O)c1cc2cc(OCCN(C)C)ccc2[nH]1)CC3CCl (stereo unspecified)
SK-OV-3
  IC50: 440 nM
HT-29 [15]
  IC50: 320 nM

## CC(=O)c1ccc2c([N+](=O)[O-])cc3c(c2c1)C(CCl)CN3C(=O)c1cc2cc(OCCN(C)C)ccc2[nH]1 (stereo unspecified)
SK-OV-3
  IC50: 210 nM
HT-29 [15]
  IC50: 150 nM

## Cn1c(COP(=O)(NCCBr)NCCBr)cnc1[N+](=O)[O-] [EVOFOSFAMIDE]
NCI-H460 [6]
  IC50: > 100000 nM
NCI-H460 [7]
  IC50: 25 µM
NCI-H460 [8]
  IC50: 2000 nM
